Laboratory results taken from ChEMBL document CHEMBL1127641, “Applications of combinatorial technologies to drug discovery. 1. Background and peptide combinatorial libraries” (J Med Chem, 1994).

Biological target: Beta-secretase (BACE) (Homo sapiens, UniProt Q9Y5Z0+P56817)
Experiment: Inhibitory activity against aspartyl protease
Assay type: protein assay

CC[C@H](C)[C@H](NC(=O)[C@H](Cc1ccccc1)NC(C)=O)C(=O)NC(CC(C)C)C(O)CC(=O)NC(CC(C)C)C(N)=O (stereo in doubt)
IC50: 1.4 µM
